According to article PMC7956166, “Phage-Display Based Discovery and Characterization of Peptide Ligands against WDR5” (Molecules, 2021):
Positions of bridges follow the written chain, without caps; N, C: chain ends. Residues, ends and D or L forms follow the SMILES beside them. No end group written: not given here.

Target: T1, WDR5 (Homo sapiens, UniProt P61964)
T1 construct: DNA fragment encoding amino acids 23 to 483 of WDR5 subcloned in the pET-28a plasmid; His6 (N); SUMO (N); made in house; host or cells: Escherichia coli BL21(DE3)
Experiment: Fluorescence polarization (FP) competitive binding assay
Settings: for EC50: FP competitive assay vs fluorescently labeled tracer (2.5 nM), 0.2 M phosphate, 300 mM NaCl, 0.1% CHAPS, pH 6.5, 0.5 mM TCEP, 4 h incubation, 384-well plate, two independent experiments; for EC50 / Ki: mean ± standard error; for Ki: Ki from nonlinear regression fitting based on Kd of the probe, protein 5 nM
Experimental: The fluorescence polarization (FP) binding assays used to evaluate the ability of these cyclic peptides targeting protein WDR5 were carried out in the 384-well plate. We synthesized the fluorescently labeled positive compound [28, 29]: 1-((3′,6′-dihydroxy-3-oxo-3H-spiro[isobenzofuran-1,9′-xanthen]-5-yl)amino)-N-(3′-(3,5-dimethylbenzamido)-4′-(4-methylpiperazin-1-yl)-[1,1′-biphenyl]-4-yl)-1-thioxo-5,8,11-trioxa-2-azatetradecan-14-amide, which was used in direct binding assay against WDR5. 10 μL of 10 nM positive compound was added to 20 μL WDR5(the final concentration was 5 nM) in the buffer containing 0.2 M phosphate; 300 mM NaCl; 0.1%CHAPS; PH 6.5; 0.5 mM TCEP. Then the peptide compound to be tested was diluted in a gradient and added to each well with 10μL. Finally, the assay was carried out in 40 μL volume and the protein tracer mixture was incubated for 4 h before reading the plate. The fluorescence polarization was measured in Synergy™ Neo2 Multi-Mode Microplate Reader using an excitation filter at 485 nm and an emission filter at 535 nm. Each experiment was done two times and each polarization readings consisted of two averaged measurements. The reading is processed by the following formula:(1) Inhibition=C−F/C−B×100% where C is the anisotropy value of the fluorescence substrate bound to the protein completely, B is the anisotropy value of the fluorescence substrate, F is the corresponding anisotropy value after adding different concentrations of peptides. The data were plotted against the log peptide concentration and was fitted into a one site-Fit logIC50 equation with Graphpad Prim5 software using nonlinear regression model to obtain the competitive curve:(2) Y=A+B−A/1+10^(x−LogIC50) where x is log10 of the compound concentration in M, Y is the inflection point (EC50 or IC50), A is the bottom plateau effect, B is the top plateau effect. Potency (IC50/EC50) is the log of the concentration of competitor that results in binding half-way between bottom and top.
The EC50 values of peptides were determined in competitive binding experiments by nonlinear regression fitting of the competition curves as mentioned above. And Ki values of competitive inhibitors were obtained directly by nonlinear regression fitting, based upon the Kd values of the probe to different proteins and concentrations of the proteins and probes in the competitive assays. The data is processed by the following formula:(3) F0=P+L0+Kd−(P+L0+Kd)^2−4×P×L0/2×L0 (4) IC50/F0×Kd/(1−F0)(2−F0)+F0×L0/2=Ki(2−F0)/Kd×F0+1 where P is the proteins concentration in the assay (5 nM), L0 is the Tracer concentration in the assay (2.5 nM), F0 and the corresponding Ki value can be calculated according to the above formula.

[1] = FP competitive assay, tracer 2.5 nM

| Compound | EC50 (WDR5 5 nM) | Ki [1] | binding to WDR5 (in words) (FP competitive assay, WDR5 5 nM, tracer 2.5 nM, pH 6.5) |
| --- | --- | --- | --- |
| CC(C)C[C@@H]1NC(=O)[C@H]([C@@H](C)O)NC(=O)[C@H](CCCNC(=N)N)NC(=O)[C@@H](N)CSSC[C@@H](C(=O)O)NC(=O)[C@H](CCC(=O)O)NC(=O)[C@H](Cc2c[nH]cn2)NC(=O)[C@H](Cc2ccccc2)NC(=O)[C@@H]2CCCN2C1=O [D206115] (H-CRTLPFHEC-OH; disulfide 1-9) | 5900 ± 200 nM | 1200 ± 40 nM |  |
| CC(C)C[C@@H]1NC(=O)[C@H]([C@@H](C)O)NC(=O)[C@H](CCCNC(=N)N)NC(=O)[C@@H](N)CSSC[C@@H](C(=O)O)NC(=O)[C@H](CC(N)=O)NC(=O)[C@H](CC(N)=O)NC(=O)[C@H](Cc2c[nH]c3ccccc23)NC(=O)[C@@H]2CCCN2C1=O [D206179] (H-CRTLPWNNC-OH; disulfide 1-9) | 2300 ± 600 nM | 500 ± 100 nM |  |
| CC(C)C[C@@H]1NC(=O)[C@H]([C@@H](C)O)NC(=O)[C@H](CCCNC(=N)N)NC(=O)[C@@H](N)CSSC[C@@H](C(=O)O)NC(=O)[C@H](C)NC(=O)CNC(=O)[C@H](Cc2ccc(O)cc2)NC(=O)[C@@H]2CCCN2C1=O [D206180] (H-CRTLPYGAC-OH; disulfide 1-9) | 2700 ± 200 nM | 500 ± 50 nM |  |
| CC(C)C[C@@H]1NC(=O)[C@H]([C@@H](C)O)NC(=O)[C@H](CCCNC(=N)N)NC(=O)[C@@H](N)CSSC[C@@H](C(=O)O)NC(=O)[C@H](CO)NC(=O)CNC(=O)[C@H](Cc2ccccc2)NC(=O)[C@@H]2CCCN2C1=O [D206181] (H-CRTLPFGSC-OH; disulfide 1-9) | 4400 ± 400 nM | 900 ± 80 nM |  |
| CEKMVATHC (disulfide 1-9 (inferred)) [D206116, disulfide-constrained cyclic peptide from phage display, without “RT” motif] |  |  | unable to bind to WDR5 |
